Positions count from the first letter of the chain named.
What was measured:
Experiment in all cases: surface plasmon resonance (BIAcore), protein immobilised on CM4 chip
[1] = target: T1, ATP7B N-domain (Nucleotide binding domain) (Homo sapiens, UniProt P35670); details: read-out: Kd (μM) / ATP
T1 construct: covalently immobilised on CM4 sensor chip
T1 sequence (P35670 1036-1196): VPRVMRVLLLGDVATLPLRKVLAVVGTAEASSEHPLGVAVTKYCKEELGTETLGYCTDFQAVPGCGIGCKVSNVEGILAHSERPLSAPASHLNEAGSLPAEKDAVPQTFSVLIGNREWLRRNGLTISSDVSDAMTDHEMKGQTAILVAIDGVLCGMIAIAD
From the text: (§1) surface plasmon resonance (BIAcore), protein immobilised on CM4 chip on ATP7B N-domain (Nucleotide binding domain)

[2] = target: T2, ATP7B N-domain (Nucleotide binding domain) (Homo sapiens, UniProt P35670, E1152A); details: read-out: Kd (μM) / ATP
T2 construct: covalently immobilised on CM4 sensor chip
T2 sequence (P35670 1036-1196 E1152A): T1 sequence (P35670 1036-1196) with E117A
From the text: as §1

[3] = target: T3, ATP7B N-domain (Nucleotide binding domain) (Homo sapiens, UniProt P35670, D1167A/D1171A/E1152A)
T3 construct: covalently immobilised on CM4 sensor chip
T3 sequence (P35670 1036-1196 E1152A/D1167A/D1171A): T1 sequence (P35670 1036-1196) with E117A, D132A, D136A
From the text: as §1

[4] = target: T4, ATP7B N-domain (Nucleotide binding domain) (Homo sapiens, UniProt P35670, D1167A); details: read-out: Kd (μM) / ATP
T4 construct: covalently immobilised on CM4 sensor chip
T4 sequence (P35670 1036-1196 D1167A): T1 sequence (P35670 1036-1196) with D132A
From the text: as §1

[5] = target: T5, ATP7B N-domain (Nucleotide binding domain) (Homo sapiens, UniProt P35670, N1150A); details: read-out: Kd (μM) / ATP
T5 construct: covalently immobilised on CM4 sensor chip
T5 sequence (P35670 1036-1196 N1150A): T1 sequence (P35670 1036-1196) with N115A
From the text: as §1

[6] = target: T6, ATP7B N-domain (Nucleotide binding domain) (Homo sapiens, UniProt P35670, D1171A); details: read-out: Kd (μM) / ATP
T6 construct: covalently immobilised on CM4 sensor chip
T6 sequence (P35670 1036-1196 D1171A): T1 sequence (P35670 1036-1196) with D136A
From the text: as §1

[7] = target: T7, ATP7B N-domain (Nucleotide binding domain) (Homo sapiens, UniProt P35670, DEL1121-1137)
T7 construct: covalently immobilised on CM4 sensor chip
T7 sequence (P35670 with tags, fused parts or gaps DEL1121-1137): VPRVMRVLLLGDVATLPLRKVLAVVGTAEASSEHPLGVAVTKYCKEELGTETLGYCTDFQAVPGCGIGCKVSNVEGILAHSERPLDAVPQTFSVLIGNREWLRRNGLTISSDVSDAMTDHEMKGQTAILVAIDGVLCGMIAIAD
From the text: as §1

[8] = target: T8, ATP7B N-domain (Nucleotide binding domain) (Homo sapiens, UniProt P35670, H1069Q); details: read-out: Kd (μM) / ATP
T8 construct: covalently immobilised on CM4 sensor chip
T8 sequence (P35670 1036-1196 H1069Q): T1 sequence (P35670 1036-1196) with H34Q
From the text: as §1

Kd [1]: 74.2 ± 2.52 µM
Kd [2]: 174 ± 3.82 µM
Kd [3]: > 1000 µM
Kd [4]: 96.9 ± 3.91 µM
Kd [5]: 82.7 ± 4.16 µM
Kd [6]: 81.1 ± 3.16 µM
Kd [7]: > 1000 µM
Kd [8]: 76.5 ± 1.72 µM
Compound: Nc1ncnc2c1ncn2[C@@H]1O[C@H](COP(=O)(O)OP(=O)(O)OP(=O)(O)O)[C@@H](O)[C@H]1O [ATP]

Reference: publication PMC3203118, “Elucidation of the ATP7B N-Domain Mg^2+-ATP Coordination Site and Its Allosteric Regulation” (PLoS ONE, 2011)
